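How tested: cells in 96-well plates exposed to compound for 48 hours at five concentrations. Here, GI50 denotes the concentration required for 50% inhibition of growth.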 Calls of active or inactive are those of the source. Cut-off read from the data, not from the text of the source: active = GI50 up to about 1.1 µM and inactive = higher.
Key:
Experiment in all cases: growth of human tumour cells (NCI), 48 h
[1] = test system: 786-0
[2] = test system: A498
[3] = test system: A549
[4] = test system: ACHN
[5] = test system: CAKI-1
[6] = test system: CCRF-CEM
[7] = test system: COLO 205
[8] = test system: DLD-1
[9] = test system: DMS-273
[10] = test system: EKVX
[11] = test system: HCC 2998
[12] = test system: HCT-15
[13] = test system: HL-60
[14] = test system: HOP-62
[15] = test system: HOP-92
[16] = test system: HT-29
[17] = test system: IGROV-1
[18] = test system: K562
[19] = test system: KM-20L2
[20] = test system: KM12
[21] = test system: LOX IMVI
[22] = test system: LXFL 529
[23] = test system: M14
[24] = test system: M19-MEL
[25] = test system: MOLT-4
[26] = test system: Malme-3M
[27] = test system: NCI-H226
[28] = test system: NCI-H23
[29] = test system: NCI-H522
[30] = test system: OVCAR-3
[31] = test system: OVCAR-4
[32] = test system: OVCAR-5
[33] = test system: OVCAR-8
[34] = test system: RPMI-8226
[35] = test system: RXF 393
[36] = test system: SF-268
[37] = test system: SF-295
[38] = test system: SF-539
[39] = test system: SK-MEL-28
[40] = test system: SK-MEL-2
[41] = test system: SK-MEL-5
[42] = test system: SK-OV-3
[43] = test system: SNB-19
[44] = test system: SNB-75
[45] = test system: SNB-78
[46] = test system: SR
[47] = test system: SW-620
[48] = test system: TK-10
[49] = test system: U-251
[50] = test system: UACC-257
[51] = test system: UACC-62
[52] = test system: UO-31
[53] = test system: XF498

`CNC(=O)CN(CC(=O)NC)C(=O)NC` was tested, and the GI50 [1] was > 100 µM (inactive), the GI50 [2] was > 100 µM (inactive) and the GI50 [3] was > 100 µM (inactive). For the same compound, the GI50 [4] was > 100 µM (inactive), the GI50 [5] was > 100 µM (inactive) and the GI50 [6] was > 100 µM (inactive). For the same compound, the GI50 [7] was > 100 µM (inactive), the GI50 [8] was > 100 µM (inactive) and the GI50 [9] was > 100 µM (inactive). For the same compound, the GI50 [10] was > 100 µM (inactive), the GI50 [11] was > 100 µM (inactive) and the GI50 [12] was > 100 µM. For the same compound, the GI50 [13] was > 100 µM (inactive), the GI50 [14] was > 100 µM (inactive) and the GI50 [15] was > 100 µM (inactive). For the same compound, the GI50 [16] was > 100 µM (inactive), the GI50 [17] was > 100 µM (inactive) and the GI50 [18] was > 100 µM (inactive). For the same compound, the GI50 [19] was > 100 µM (inactive), the GI50 [20] was > 100 µM (inactive) and the GI50 [21] was > 100 µM (inactive). The GI50 [22] was > 100 µM (inactive), the GI50 [23] was > 100 µM (inactive) and the GI50 [24] was > 100 µM (inactive). The GI50 [25] was > 100 µM (inactive), the GI50 [26] was > 100 µM (inactive) and the GI50 [27] was > 100 µM (inactive). For the same compound, the GI50 [28] was > 100 µM (inactive), the GI50 [29] was > 100 µM (inactive) and the GI50 [30] was > 100 µM (inactive). For the same compound, the GI50 [31] was > 100 µM (inactive), the GI50 [32] was > 100 µM (inactive) and the GI50 [33] was > 100 µM (inactive). The GI50 [34] was > 100 µM (inactive), the GI50 [35] was > 100 µM (inactive) and the GI50 [36] was > 100 µM (inactive). The GI50 [37] was > 100 µM (inactive), the GI50 [38] was > 100 µM (inactive) and the GI50 [39] was > 100 µM (inactive). For the same compound, the GI50 [40] was > 100 µM (inactive), the GI50 [41] was > 100 µM (inactive) and the GI50 [42] was > 100 µM (inactive). The GI50 [43] was > 100 µM (inactive), the GI50 [44] was > 100 µM (inactive) and the GI50 [45] was > 100 µM (inactive). For the same compound, the GI50 [46] was > 100 µM (inactive), the GI50 [47] was > 100 µM (inactive) and the GI50 [48] was > 100 µM (inactive). The GI50 [49] was > 100 µM (inactive), the GI50 [50] was > 100 µM (inactive) and the GI50 [51] was > 100 µM (inactive). For the same compound, the GI50 [52] was > 100 µM (inactive) and the GI50 [53] was > 100 µM (inactive).

Reference: ChEMBL document CHEMBL1201862, “PubChem BioAssay data set” (2004)
